Reference: patent EP0165775A1, “Antifungal azole compounds” (IMPERIAL CHEMICAL INDUSTRIES PLC, priority 1984, dated 1985)

System: Candida albicans and Trichophyton mentagrophytes var. quinkeanum
Assay: animal or person
Assay type: in vivo
Settings: 168 h; female mice, oral dosing twice on day 0 and once daily on days 1-4; skin lesions scored and vaginal samples cultured on day 7; read-out: minimum effective dose (MED)
Protocol: The following Monday (day 0) they are clipped on the back and then dosed orally with test compounds. They are then inoculated with Candida albicans in the vagina and Trichophyton mentagrophytes var. quinkeanum on the back, and then given a second dose of the same compound. Dosing is repeated once daily on days 1-4. On day 7 skin lesions are scored visually and vaginal samples taken for culture on agar. Groups of 5 mice are used and compounds are dosed initially at a level of 250mg./kg. The dose is then reduced sequentially until a minimum effective dose (MED) is found.

Structure (SMILES): OC(Cn1cncn1)(Cn1cnc(Br)n1)c1ccc(F)cc1F (stereo not drawn) [Example 1, 1-(3-bromo-1,2,4-triazol-1-yl)-2-(2,4-difluorophenyl)-3-(1,2,4-triazol-l-yl)propan-2-ol]
- minimal effective dose: 2.5 mg/kg
